# Tests used:
# [1] = biological target: T1, hEGFR ECD (Homo sapiens, UniProt P00533); test: SPR (Biacore T100) on hEGFR extracellular domain; assay type: binding
# T1 construct: directly immobilized hEGFR extracellular domain (Sino Biological, #10001-H08H); purchased Sino Biological 10001-H08H
# [2] = tested on: X4 HIV-1 clone NL4.3 (PBMCs); test: microbe, parasite or virus in culture; assay type: cell-based; details: Human immunodeficiency virus 1, PBMC, read-out: IC50 (nM) PBMC + NL 4.3(X4)
# [3] = tested on: HIV-2 ROD; test: HIV infection assay, MT-4 cells + HIV-2 ROD; assay type: cell-based; details: Human immunodeficiency virus 2, MT4
# From the text: (§1) Viral strains used were the X4 HIV-1 clone NL4.3, R5 HIV-1 strain BaL, or the R5/X4 HIV-1 HE strain. Infection was done in MT-4 cells or phytohemagglutin-stimulated PBMCs from different healthy donors. The CXCR4-using (X4) HIV-1 clone NL4.3 was obtained from the National Institutes of Health NIAID AIDS Reagent program (Bethesda, Md.), the CCR5-using (R5) HIV-1 strain BaL was obtained from the Medical Research Council AIDS reagent project (Herts, UK). The dual-tropic (R5/X4) HIV-1 HE strain was initially isolated from a patient at the University Hospital in Leuven. The MT-4 cells were seeded out in 96-well plate and the U87 cells in 24-well plates. Nanobodies were added at different concentrations together with HIV-1 and the plates were maintained at 37° C. in 10% CO2. Cytopathic effect induced by the virus was monitored by daily microscopic evaluation of the virus-infected cell cultures. […] The absorbance was measured spectrophotometrically at 490 nm with a 96-well plate reader (Molecular Devices, Sunnyvale, Calif.) and compared with four cell control replicates (cells without virus and drugs) and four virus control wells (virus-infected cells without drugs). The IC50, i.e., the drug concentration that inhibits HIV-induced cell death by 50%, was calculated for each polypeptide from the dose-response curve. […]
# [4] = tested on: X4 HIV-1 clone NL4.3 (U87 cells); test: HIV-1 infection assay, U87 cells + NL4.3; assay type: cell-based; details: Human immunodeficiency virus 1, U-87 MG; n = 3; read-out: IC50 (nM) U87 + NL 4.3 (X4)
# [5] = tested on: dual-tropic (R5/X4) HIV-1 HE strain; test: HIV infection assay, MT-4 cells + HIV-1 HE; assay type: cell-based; details: Human immunodeficiency virus 1, MT4
# From the text: as §1
# [6] = tested on: HIV-1 NL4.3 AMD-3100 res. variant; assay type: cell-based; details: versus wild-type NL4.3
Molecule,hEGFR ECD ka [1],hEGFR ECD kd [1],IC50 [2],IC50 [3],IC50 [4],IC50 [5],loss in potency towards AMD3100 resistant virus [6]
"EGFR#32: EGFR Nanobody variant 7C12(A1E, E100fS, Q108L)",270000 M⁻¹ s⁻¹,0.23 s⁻¹,,,,,
"c1cc(CN2CCCNCCNCCCNCC2)ccc1CN1CCCNCCNCCCNCC1 [AMD3100, reference compound]",,,1.91 nM,21.1 nM,10 nM,3.9 nM,~100 fold
"EGFR#11: EGFR Nanobody variant 7C12 (A1E, Q108L)",220000 M⁻¹ s⁻¹,0.037 s⁻¹,,,,,

# Reference: US20220242958A1, “BISPECIFIC NANOBODIES” (Ablynx N.V., priority 2013, published 2022)
